Test results from patent publication US20090232838A1, “Ligands of melanocortin receptors” (priority 2005, published 2009).
Read-outs that look alike come from different tables or passages of the source. Where a SMILES comes first, the peptide text is derived from it. Bridges are numbered along the chain shown (N, C = ends). [ ]: non-standard residue; d: D form. 2Nal = N[C@@H](Cc1ccc2ccccc2c1)C(=O)O; d2Nal = N[C@H](Cc1ccc2ccccc2c1)C(=O)O; Aib = CC(C)(N)C(=O)O

How the values were obtained:
[1] = target: T1, hMC1-R (Homo sapiens, UniProt Q01726); assay: cyclic AMP bioassay, hMC1-R; format: cell-based
T1 construct: expressed in transfected cells; host or cells: CHO-K1
T1 sequence (Q01726 whole entry): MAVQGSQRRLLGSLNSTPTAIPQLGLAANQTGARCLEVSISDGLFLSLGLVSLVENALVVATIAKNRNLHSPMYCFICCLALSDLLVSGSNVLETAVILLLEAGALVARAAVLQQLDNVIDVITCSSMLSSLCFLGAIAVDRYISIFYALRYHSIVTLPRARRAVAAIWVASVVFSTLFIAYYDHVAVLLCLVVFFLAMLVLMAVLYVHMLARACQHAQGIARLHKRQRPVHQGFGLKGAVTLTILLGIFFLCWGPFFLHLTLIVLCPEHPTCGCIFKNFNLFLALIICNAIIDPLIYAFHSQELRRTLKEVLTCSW
Method: Intracellular cyclic AMP (cAMP) levels were determined by an electrochemiluminescence (ECL) assay (Meso Scale Discovery®, Gaithersburg, Md.; referred to hereinafter as MSD). […] Transgenic CHO-K1 cells stably expressing hMC receptor subtypes 1, 3, 4 or 5 were dispensed at a density of approximately 7,000 cells/well in 384-well Multi-Arrays plates (MSD) containing integrated carbon electrodes and coated with anti-CAMP antibody. Increasing concentrations of the test compounds were added and the cells were incubated for approximately 40 minutes at approximately 37° C. […] At the end of the second incubation period read buffer (Tris-buffered solution containing an ECL co-reactant and Triton X-100 at ph 7.8) was added and the cAMP levels in the cell lysates were immediately determined by ECL detection with a Sector Imager 6000 Reader® (MSD). Data were analyzed using a computer-assisted non-linear regression analysis (XL fit; IDBS) and reported as either an EC50 value or a Kb value.
The Kb value reflects the potency of an antagonist and is determined by Schild analysis. In brief, concentration-response curves of an agonist are carried out in the presence of increasing concentrations of an antagonist. […] It is calculated by extrapolating the line on a Schild plot to zero on the y-axis.

[2] = target: T2, hMC4-R (Homo sapiens, UniProt P32245); assay: cyclic AMP bioassay, hMC4-R; format: cell-based
T2 construct: expressed in transfected cells; host or cells: CHO-K1
T2 sequence (P32245 whole entry): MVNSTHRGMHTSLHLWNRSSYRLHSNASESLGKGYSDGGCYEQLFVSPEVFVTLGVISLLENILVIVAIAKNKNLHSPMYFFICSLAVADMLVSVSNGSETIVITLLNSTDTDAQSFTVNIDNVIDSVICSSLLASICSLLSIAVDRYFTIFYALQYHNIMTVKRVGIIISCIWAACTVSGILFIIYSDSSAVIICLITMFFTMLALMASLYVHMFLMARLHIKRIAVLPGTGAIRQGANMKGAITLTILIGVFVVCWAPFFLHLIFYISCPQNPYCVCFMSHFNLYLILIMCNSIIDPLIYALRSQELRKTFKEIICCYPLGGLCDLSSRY

[3] = target: T2, hMC4-R; assay: Radioligand binding assay, hMC4-R
Method: (§1) Cellular membranes used for the in vitro receptor binding assays were obtained from transgenic CHO-K1 cells stably expressing hMC-R receptor subtypes 1, 3, 4 or 5. […] The pellets were resuspended in the same buffer and centrifuged at 50,000 g for 10 minutes at approximately 4° C. The washed pellets containing the cellular membranes were stored at approximately −80° C.
(§2) Filters were washed three times with 50 mM Tris-HCl at p-H 7.4 at a temperature of approximately 0-4° C. and then assayed for radioactivity using a Packard Topcount® scintillation counter. Binding data were analyzed by computer-assisted non-linear regression analysis (XL fit; IDBS).

[4] = target: T3, hMC3-R (Homo sapiens, UniProt P41968); assay: cyclic AMP bioassay, hMC3-R; format: cell-based
T3 construct: expressed in transfected cells; host or cells: CHO-K1
T3 sequence (P41968 whole entry): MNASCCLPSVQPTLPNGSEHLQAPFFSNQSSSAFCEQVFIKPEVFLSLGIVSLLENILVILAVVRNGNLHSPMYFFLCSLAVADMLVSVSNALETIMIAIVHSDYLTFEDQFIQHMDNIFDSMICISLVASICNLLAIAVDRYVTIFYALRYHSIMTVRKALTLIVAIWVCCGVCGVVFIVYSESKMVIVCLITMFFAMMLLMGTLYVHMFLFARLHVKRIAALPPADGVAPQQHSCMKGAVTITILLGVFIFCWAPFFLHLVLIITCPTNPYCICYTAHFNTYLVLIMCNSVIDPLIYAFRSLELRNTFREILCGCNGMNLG

[5] = target: T4, hMC5-R (Homo sapiens, UniProt P33032); assay: cyclic AMP bioassay, hMC5-R; format: cell-based
T4 construct: expressed in transfected cells; host or cells: CHO-K1
T4 sequence (P33032 whole entry): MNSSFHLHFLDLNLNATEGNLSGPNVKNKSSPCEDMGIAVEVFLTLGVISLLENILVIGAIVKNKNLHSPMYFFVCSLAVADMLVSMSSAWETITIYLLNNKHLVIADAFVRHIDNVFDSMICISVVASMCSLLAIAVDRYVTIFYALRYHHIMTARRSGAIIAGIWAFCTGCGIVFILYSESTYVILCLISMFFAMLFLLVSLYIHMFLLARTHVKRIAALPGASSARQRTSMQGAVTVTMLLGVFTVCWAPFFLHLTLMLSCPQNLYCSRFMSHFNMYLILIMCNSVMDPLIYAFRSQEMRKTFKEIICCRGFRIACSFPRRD

[6] = target: T3, hMC3-R; assay: Radioligand binding assay, hMC3-R
Method: as §1, §2

[7] = Table 3A, cAMP in CHO-K1 cells, antagonist potency by Schild analysis, read-out: Kb hMC4-R
[8] = Table 3A, cAMP in CHO-K1 cells, antagonist potency by Schild analysis, read-out: Kb hMC3-R
[9] = Table 3A, cAMP in CHO-K1 cells, agonist, read-out: EC50 hMC1-R
[10] = Table 3A, cAMP in CHO-K1 cells, agonist, read-out: EC50 hMC5-R

Structure (SMILES)	EC50 [1]	Kb [2]	Ki [3]	Kb [4]	EC50 [5]	Ki [6]	Kb [2, 7]	Ki ([3]; read-out: Ki hMC4-R)	Kb [4, 8]	EC50 [1, 9]	EC50 [5, 10]
CC(=O)N[C@H]1CSSC[C@@H](C(=O)N2CCC[C@H]2C(=O)N2CCC[C@H]2C(=O)N[C@@H](CCCNC(=N)N)C(=O)N[C@@H](CC(=O)O)C(=O)NCCC(=O)N[C@@H](CCCNC(=N)N)C(=O)N[C@@H](CCCNC(=N)N)C(=O)N[C@@H](CCCNC(=N)N)C(=O)N[C@@H](CCCNC(=N)N)C(=O)N[C@@H](CCCNC(=N)N)C(=O)N[C@@H](CCC(N)=O)C(=O)N[C@@H](CCCNC(=N)N)C(=O)N[C@@H](CCCNC(=N)N)C(=O)N[C@@H](CCCNC(=N)N)C(N)=O)NC(=O)[C@H](C)NC(=O)[C@H](Cc2cccc3ccccc23)NC(=O)[C@H](CCCNC(=N)N)NC(=O)[C@@H](Cc2ccc3ccccc3c2)NC(=O)[C@H](Cc2c[nH]cn2)NC(=O)[C@H](CCC(=O)O)NC1=O	144 nM	8.93 nM	0.293 nM	116 nM	819 nM	–	–	–	–	–	–
CC(=O)N[C@H]1CSSC[C@@H](C(=O)N2CCC[C@H]2C(=O)N2CCC[C@H]2C(=O)N[C@@H](CCCCN)C(=O)N[C@@H](CC(=O)O)C(N)=O)NC(=O)C(C)(C)NC(=O)[C@H](Cc2ccc3ccccc3c2)NC(=O)[C@H](CCCNC(=N)N)NC(=O)[C@@H](Cc2ccc3ccccc3c2)NC(=O)[C@H](Cc2c[nH]cn2)NC(=O)[C@H](CCC(=O)O)NC1=O [Ac-c(Cys-Glu-His-D-2-Nal-Arg-2-Nal-Aib-Cys)-Pro-Pro-Lys-Asp-NH2] (Ac-CEH[d2Nal]R[2Nal][Aib]CPPKD-NH2; disulfide 1-8)	770 nM	4.52 nM	5.87 nM	221 nM	869 nM	–	–	–	–	–	–
CC(=O)N[C@H]1CSSC[C@@H](C(=O)N2CCC[C@H]2C(=O)N2CCC[C@H]2C(=O)N[C@@H](CCCNC(=N)N)C(=O)N[C@@H](CC(=O)O)C(=O)NCCC(=O)N[C@@H](CCCNC(=N)N)C(=O)N[C@@H](CCCNC(=N)N)C(=O)N[C@@H](CCCNC(=N)N)C(=O)N[C@@H](CCCNC(=N)N)C(=O)N[C@@H](CCCNC(=N)N)C(=O)N[C@@H](CCC(N)=O)C(=O)N[C@@H](CCCNC(=N)N)C(=O)N[C@@H](CCCNC(=N)N)C(=O)N[C@@H](CCCNC(=N)N)C(N)=O)NC(=O)[C@H](C)NC(=O)[C@H](Cc2ccc3ccccc3c2)NC(=O)[C@H](CCCNC(=N)N)NC(=O)[C@@H](Cc2ccc3ccccc3c2)NC(=O)[C@H](Cc2c[nH]cn2)NC(=O)[C@H](CCC(=O)O)NC1=O	39.7 nM	6.66 nM	–	30.9 nM	501 nM	–	–	–	–	–	–
CC(=O)N[C@H]1CSSC[C@@H](C(=O)N2CCC[C@H]2C(=O)N2CCC[C@H]2C(=O)N[C@@H](CCCCN)C(=O)N[C@@H](CC(=O)O)C(=O)NCCC(=O)N[C@@H](Cc2ccc(O)cc2)C(=O)NCC(=O)N[C@@H](CCCNC(=N)N)C(=O)N[C@@H](CCCCN)C(=O)N[C@@H](CCCCN)C(=O)N[C@@H](CCCNC(=N)N)C(=O)N[C@@H](CCCNC(=N)N)C(=O)N[C@@H](CCC(N)=O)C(=O)N[C@@H](CCCNC(=N)N)C(=O)N[C@@H](CCCNC(=N)N)C(=O)N[C@@H](CCCNC(=N)N)C(N)=O)NC(=O)[C@H](C)NC(=O)[C@H](Cc2cccc3ccccc23)NC(=O)[C@H](CCCNC(=N)N)NC(=O)[C@@H](Cc2ccc3ccccc3c2)NC(=O)[C@H](Cc2c[nH]cn2)NC(=O)[C@H](CCC(=O)O)NC1=O	43.3 nM	5.87 nM	–	215 nM	1290 nM	–	–	–	–	–	–
CC(=O)N[C@H]1CSSC[C@@H](C(=O)N2CCC[C@H]2C(=O)N2CCC[C@H]2C(=O)N[C@@H](CCCCN)C(=O)N[C@@H](CC(=O)O)C(=O)NCCC(=O)N[C@@H](Cc2ccc(O)cc2)C(=O)NCC(=O)N[C@@H](CCCNC(=N)N)C(=O)N[C@@H](CCCCN)C(=O)N[C@@H](CCCNC(=N)N)C(=O)N[C@@H](CCCNC(=N)N)C(=O)N[C@@H](CCCNC(=N)N)C(=O)N[C@@H](CCC(N)=O)C(=O)N[C@@H](CCCNC(=N)N)C(=O)N[C@@H](CCCNC(=N)N)C(=O)N[C@@H](CCCNC(=N)N)C(N)=O)NC(=O)[C@H](C)NC(=O)[C@H](Cc2cccc3ccccc23)NC(=O)[C@H](CCCNC(=N)N)NC(=O)[C@@H](Cc2ccc3ccccc3c2)NC(=O)[C@H](Cc2c[nH]cn2)NC(=O)[C@H](CCC(=O)O)NC1=O	102 nM	14.6 nM	–	26.3 nM	261 nM	1.61 nM	–	–	–	–	–
CCCC[C@H](N)C(=O)N[C@H]1CC(=O)NCCCC[C@@H](C(=O)NCCOCCOCC(=O)NCCOCCOCC(=O)N[C@@H](Cc2ccc(O)cc2)C(=O)NCC(=O)N[C@@H](CCCNC(=N)N)C(=O)N[C@@H](CCCCN)C(=O)N[C@@H](CCCCN)C(=O)N[C@@H](CCCNC(=N)N)C(=O)N[C@@H](CCCNC(=N)N)C(=O)N[C@@H](CCC(N)=O)C(=O)N[C@@H](CCCNC(=N)N)C(=O)N[C@@H](CCCNC(=N)N)C(=O)N[C@@H](CCCNC(=N)N)C(N)=O)NC(=O)[C@H](Cc2c[nH]c3ccccc23)NC(=O)[C@H](CCCNC(=N)N)NC(=O)[C@@H](Cc2ccc3ccccc3c2)NC(=O)[C@H](Cc2c[nH]cn2)NC1=O	–	–	–	–	–	–	3.11 nM	6 nM	261 nM	–	–
CC(=O)N[C@H]1CSSC[C@@H](C(=O)N2CCC[C@H]2C(=O)N2CCC[C@H]2C(=O)N[C@@H](CCCCN)C(=O)N[C@@H](CC(=O)O)C(N)=O)NC(=O)[C@H](C)NC(=O)[C@H](Cc2c[nH]c3ccccc23)NC(=O)[C@H](CCCNC(=N)N)NC(=O)[C@@H](Cc2ccc3ccccc3c2)NC(=O)[C@H](Cc2c[nH]cn2)NC(=O)[C@H](CCC(=O)O)NC1=O [Ac-c(Cys-Glu-His-D-2-Nal-Arg-Trp-Ala-Cys)-Pro-Pro-Lys-Asp-NH2] (Ac-CEH[d2Nal]RWACPPKD-NH2; disulfide 1-8)	–	–	–	–	–	–	0.687 nM	–	33.4 nM	66.1 nM	6.84 nM
CC(=O)N[C@H]1CSSC[C@@H](C(=O)N2CCC[C@H]2C(=O)N2CCC[C@H]2C(=O)N[C@@H](CCCCN)C(=O)N[C@@H](CC(=O)O)C(=O)NCCC(=O)N[C@@H](Cc2ccc(O)cc2)C(=O)NCC(=O)N[C@@H](CCCNC(=N)N)C(=O)N[C@@H](CCCCN)C(=O)N[C@@H](CCCCN)C(=O)N[C@@H](CCCNC(=N)N)C(=O)N[C@@H](CCCNC(=N)N)C(=O)N[C@@H](CCC(N)=O)C(=O)N[C@@H](CCCNC(=N)N)C(=O)N[C@@H](CCCNC(=N)N)C(=O)N[C@@H](CCCNC(=N)N)C(N)=O)NC(=O)[C@H](C)NC(=O)[C@H](Cc2c[nH]c3ccccc23)NC(=O)[C@H](CCCNC(=N)N)NC(=O)[C@@H](Cc2ccc3ccccc3c2)NC(=O)[C@H](Cc2c[nH]cn2)NC(=O)[C@H](CCC(=O)O)NC1=O	–	–	–	–	–	–	1.66 nM	–	70 nM	6.3 nM	38.2 nM
CC(=O)N[C@H]1CSSC[C@@H](C(=O)N2CCC[C@H]2C(=O)N2CCC[C@H]2C(=O)N[C@@H](CCCCN)C(=O)N[C@@H](CC(=O)O)C(=O)NCCC(=O)N[C@@H](Cc2ccc(O)cc2)C(=O)NCC(=O)N[C@@H](CCCNC(=N)N)C(=O)N[C@@H](CCCCN)C(=O)N[C@@H](CCCCN)C(=O)N[C@@H](CCCNC(=N)N)C(=O)N[C@@H](CCCNC(=N)N)C(=O)N[C@@H](CCCNC(=N)N)C(=O)N[C@@H](CCCNC(=N)N)C(=O)N[C@@H](CCC(N)=O)C(=O)N[C@@H](CCCNC(=N)N)C(N)=O)NC(=O)[C@H](C)NC(=O)[C@H](Cc2c[nH]c3ccccc23)NC(=O)[C@H](CCCNC(=N)N)NC(=O)[C@@H](Cc2ccc3ccccc3c2)NC(=O)[C@H](Cc2c[nH]cn2)NC(=O)[C@H](CCC(=O)O)NC1=O	–	–	–	–	–	–	7.12 nM	–	36 nM	16.9 nM	58.9 nM
CC(=O)N[C@H]1CSSC[C@@H](C(=O)N2CCC[C@H]2C(=O)N2CCC[C@H]2C(=O)N[C@@H](CCCCN)C(=O)N[C@@H](CC(=O)O)C(N)=O)NC(=O)[C@H](C)NC(=O)[C@H](Cc2ccc3ccccc3c2)NC(=O)[C@H](CCCNC(=N)N)NC(=O)[C@@H](Cc2ccc3ccccc3c2)NC(=O)[C@H](Cc2c[nH]cn2)NC(=O)[C@H](CCC(=O)O)NC1=O [Ac-c(Cys-Glu-His-D-2-Nal-Arg-2-Nal-Ala-Cys)-Pro-Pro-Lys-Asp-NH2] (Ac-CEH[d2Nal]R[2Nal]ACPPKD-NH2; disulfide 1-8)	33.6 nM	12.2 nM	–	140 nM	66.9 nM	–	–	–	–	–	–
CC(=O)N[C@H]1CSSC[C@@H](C(=O)N2CCC[C@H]2C(=O)N2CCC[C@H]2C(=O)N[C@@H](CCCCN)C(=O)N[C@@H](CC(=O)O)C(=O)NCCC(=O)N[C@@H](CCCNC(=N)N)C(=O)N[C@@H](CCCNC(=N)N)C(=O)N[C@@H](CCCCN)C(=O)N[C@@H](CCCNC(=N)N)C(=O)N[C@@H](CCCNC(=N)N)C(=O)N[C@@H](CCC(N)=O)C(=O)N[C@@H](CCCNC(=N)N)C(=O)N[C@@H](CCCNC(=N)N)C(=O)N[C@@H](CCCNC(=N)N)C(N)=O)NC(=O)[C@H](C)NC(=O)[C@H](Cc2cccc3ccccc23)NC(=O)[C@H](CCCNC(=N)N)NC(=O)[C@@H](Cc2ccc3ccccc3c2)NC(=O)[C@H](Cc2c[nH]cn2)NC(=O)[C@H](CCC(=O)O)NC1=O	70.4 nM	18.6 nM	–	286 nM	> 10000 nM	–	–	–	–	–	–
